Experimental data taken from patent publication US10407445B2, “Hepatitis C virus inhibitors” (ENANTA PHARMACEUTICALS, INC., priority 2013, dated 2019).

Tested on: not listed separately
Assay: IV and PO single dose pharmacokinetic studies in SD rats
Assay type: in vivo
Settings: Sprague-Dawley, rat, plasma, comparative table, male SD rats, oral 20 mg/kg vs IV
Experimental: The pharmacokinetics of selected compounds was characterized in male Sprague-Dawley (SD) rats (250-300 g). […] The intravenous (IV) dosing vehicle was 5% ethanol and 95% of 20% 2-hydroxypropyl β-cyclodextrin in water. The oral dosing vehicle was 33% of Microemulsion Preconcentrate #5 (a lipid based self-emulsifying drug delivery system, SEDDS) and 67% of 50 mM citrate buffer (final pH 3.6).
Serial blood samples (approximately 0.3 mL each) were collected from jugular vein or other suitable vein at specified time points. For the IV dosing group, the blood samples were collected predose and at 0.08, 0.25, 0.50, 1, 3, 6, 8, and 24 hours after the start of dosing. For the oral group, the blood samples were collected predose and at 0.08, 0.25, 0.50, 1, 3, 6, 8, and 24 hours after dosing. The blood samples were collected into VACUTAINER™ tubes containing EDTA-K3 as the anti-coagulant and were centrifuged at approximately 4° C. to obtain plasma. The plasma samples were stored at −20° C. until analysis by LC/MS/MS.
A bioanalytical method utilizing high performance liquid chromatography coupled to tandem mass spectrometry (LC/MS/MS) was developed for analysis of the selected compound in rat plasma. Detection was performed using multiple reaction monitoring (MRM); Ions representing the precursor (M+H)^+ species was selected in quadrupole 1 (Q1) and collided with nitrogen gas in the collision cell (Q2) to generate specific product ion, which was subsequently monitored by quadrupole 3 (Q3). Standard curve and quality control samples were prepared in male rat plasma and processed in the same way as the test samples to generate quantitative data.
Pharmacokinetic parameters were generated using non-compartmental pharmacokinetic analysis (Phoenix WinNonlin, version 6.3). Values below the lower limit of quantification (LLOQ) were assigned a value of zero if predose and treated as missing thereafter. Area under the curve (AUC) was calculated using the linear trapezoidal rule. The oral bioavailability (% F) was determined by comparison of the area under the curve (AUC) of the compound in plasma following oral administration to that generated following intravenous administration.

Work on COC(=O)N[C@H](C(=O)N1C[C@]2(CCCOC2)C[C@H]1c1ncc(-c2ccc(-c3ccc4c(ccc5nc([C@@H]6CCCN6C(=O)[C@@H](NC(=O)OC)C(C)C)[nH]c54)c3)cc2)[nH]1)C(C)C [drawing 233] yielded a bioavailability of 7%.

Tested on: HCV GT 1b replicon
Assay: HCV replicon assay, stable GT 1b replicon (Renilla luciferase)
Assay type: cell-based
Settings: Hepatitis C virus, GT1B, 72 h
Experimental: The activity of compounds was determined against HCV replicons representing genotypes (GT) 1a, 1b, 2a, and 3a. To generate stable Huh-7.5-based cell lines, HCV replicons were engineered to express the Renilla luciferase reporter (hRluc) fused to the neomycin phosphotransferase (Neo) gene. GT2a and GT3a HCV replicons were based on the JFH-1 subgenomic replicon (Kato et al. 2003 Gastroenterology, 125:1808-1817), in which the NS5A gene was replaced with that of strains J6 and S52 (GT2a and G3a, respectively). The activity of compounds against GT1a replicons encoding NS5A mutations (M28T, Q30R, L31M, Y93C, and Y93H) was also determined in a transient replication assay. The parental GT1a and GT2a replicons (pH/SG-Neo(L+I) and pSG-Neo-JFH1, respectively) were licensed from Apath LLC (Saint Louis, Mo.). The parental GT 1b replicon (pFKi389lucubineo_3_3′_ET) was licensed from ReBLikon GmbH (Germany). HCV replicons were constructed by standard molecular biology techniques described below. All replicon constructs were verified by restriction enzyme digestion and DNA sequencing.
The hRluc-Neo cassette was PCR amplified from pF9 cytomegalovirus (CMV) hRluc-Neo Flexi(R) (Promega) using Accuprime Super Mix II (Invitrogen) and the following primers, which introduce restriction sites: […]
The amplification product was subcloned into pCR2.1-TOPO (Invitrogen). The resulting plasmid was digested with AscI and NotI, and the excised hRluc-Neo fragment was ligated using the Roche Quick Ligation Kit (Roche) into pFKi389lucubineo_3_3′_ET digested with the same enzymes.
Stable HCV replicon cell lines were grown in complete media (Dulbecco's modified Eagle medium [DMEM], 2 mM L-glutamine, 0.1 mM essential amino acids, 1 mM sodium pyruvate, 10% heat inactivated fetal bovine serum) with the addition 500 μg/ml […] (G418). Huh7-lunet cells were maintained in the same medium without the addition of G418. Cells were routinely passaged at a dilution of 1:4 two times a week. The assay medium for both luciferase reporter HCV replicon and cytotoxicity assays used phenol red-free DMEM and lacked G418. For each stable replicon assay, a sixteen point half-log dilution series of compound was stamped (0.5 ul compound per well) into three replica 384-well plates, to which cells were added directly (4000 cells/well). For the transient replication assay, Huh7-lunet cells in ice-cold phosphate buffered saline (PBS) were electroporated (BioRad electroporator; 950 uF, 270V) with 10 ug purified in vitro transcribed HCV replicon RNA, followed by resuspension in complete media and plating (8000 cells/well) into compound stamped 384-well plates. Luciferase activity of compound-treated cells was measured relative to DMSO-treated cells after 72 h incubation using RENILLA-GLO™ Luciferase Assay (Promega). Cytotoxicity (CC50) in the GT1b replicon cell line was analyzed using CELL TITER-GLO™ (Promega).
The compounds of the present invention can be effective against the HCV 1b genotype. It should also be understood that the compounds of the present invention can inhibit multiple genotypes of HCV. In one embodiment compound of the present invention are active against the 1a, 1b, 2a, 2b, 3a, 4a, and 5a genotypes. In another embodiment compound of the present invention are active against the HCV resistant mutants. […] EC50s are in pM against HCV GT 1a and GT 1b; and nM against GT 2a-J6, GT 3a and GT1a resistant variants (M28T, Q30R, L31V, Y93C and Y93H).

Compared with COC(=O)N[C@H](C(=O)N1C[C@]2(CCCCO2)C[C@H]1c1nc(-c2ccc(-c3ccc4c(ccc5nc([C@@H]6CCCN6C(=O)[C@@H](NC(=O)OC)C(C)C)[nH]c54)c3)cc2)c[nH]1)C(C)C [Example 2], COC(=O)N[C@H](C(=O)N1C[C@@]2(CCCCO2)C[C@H]1c1nc(-c2ccc(-c3ccc4c(ccc5nc([C@@H]6CCCN6C(=O)[C@@H](NC(=O)OC)C(C)C)[nH]c54)c3)cc2)c[nH]1)C(C)C [Example 3] is 5.7-fold higher in EC50: 0.007 nM for the first, 0.04 nM for the second.

COC(=O)N[C@H](C(=O)N1C[C@@]2(CCCOC2)C[C@H]1c1ncc(-c2ccc(-c3ccc4c(ccc5nc([C@@H]6CCCN6C(=O)[C@@H](NC(=O)OC)C(C)C)[nH]c54)c3)cc2)[nH]1)C(C)C [Compound 27] and COC(=O)N[C@H](C(=O)N1C[C@@]2(CCOC2)C[C@H]1c1ncc(-c2ccc(-c3ccc4c(ccc5nc([C@@H]6CCCN6C(=O)[C@@H](NC(=O)OC)C(C)C)[nH]c54)c3)cc2)[nH]1)C(C)C [Compound 50] are within 1.5-fold of each other in EC50: 0.022 nM for the first, 0.016 nM for the second.

Going from COC(=O)N[C@H](C(=O)N1C[C@]2(CCCOC2)C[C@H]1c1ncc(-c2ccc3cc4cc(-c5cnc([C@@H]6C[C@@H]7CCCC[C@@H]7N6C(=O)[C@@H](NC(=O)OC)C(C)C)[nH]5)ccc4cc3c2)[nH]1)C(C)C [Compound 13] to COC(=O)N[C@H](C(=O)N1C[C@]2(CCCOC2)C[C@H]1c1ncc(-c2ccc3c(ccc4cc(-c5cnc([C@@H]6C[C@@H]7CCCC[C@@H]7N6C(=O)[C@@H](NC(=O)OC)C(C)C)[nH]5)ccc43)c2)[nH]1)C(C)C [Compound 17], the EC50 falls from 0.021 nM to 0.013 nM (1.6-fold). The second is the more potent here.

COC(=O)N[C@H](C(=O)N1CCC[C@H]1c1ncc(-c2ccc(-c3ccc4c(ccc5nc([C@@H]6CCCN6C(=O)[C@@H](NC(=O)OC)C(C)C)[nH]c54)c3)cc2)[nH]1)C(C)C [Example 102] and COC(=O)N[C@H](C(=O)N1C[C@]2(CCCO2)C[C@H]1c1ncc(-c2ccc(-c3ccc4c(ccc5nc([C@@H]6CCCN6C(=O)[C@@H](NC(=O)OC)C(C)C)[nH]c54)c3)cc2)[nH]1)C(C)C [Example 81] are within 1.5-fold of each other in EC50: 0.014 nM for the first, 0.013 nM for the second.

Going from COC(=O)N[C@H](C(=O)N1CCC[C@H]1c1nc2ccc(C#Cc3ccc4c(ccc5nc([C@@H]6CCCN6C(=O)[C@@H](NC(=O)OC)C(C)C)[nH]c54)c3)cc2[nH]1)C(C)C [Example 103] to COC(=O)N[C@H](C(=O)N1CCC[C@H]1c1nc2ccc3cc(-c4ccc5c(ccc6nc([C@@H]7CCCN7C(=O)[C@@H](NC(=O)OC)C(C)C)[nH]c65)c4)ccc3c2[nH]1)C(C)C [Example 101], the EC50 rises from 0.004 nM to 0.021 nM (5.2-fold).

Compared with COC(=O)N[C@H](C(=O)N1C[C@]2(CCCOC2)C[C@H]1c1ncc(-c2ccc3c(c2)COc2cc(-c4cnc([C@@H]5C[C@@H]6CCCC[C@@H]6N5C(=O)[C@@H](NC(=O)OC)C(C)C)[nH]4)ccc2-3)[nH]1)C(C)C [Compound 15], COC(=O)N[C@H](C(=O)N1C[C@]2(CCCOC2)C[C@H]1c1ncc(-c2ccc(-c3ccc4c(c3)OCc3nc([C@@H]5C[C@@H]6CCCC[C@@H]6N5C(=O)[C@@H](NC(=O)OC)C(C)C)[nH]c3-4)cc2)[nH]1)C(C)C [Compound 42] is 2-fold lower in EC50: 0.012 nM for the first, 0.006 nM for the second. The second is the more potent here.

Going from COC(=O)N[C@H](C(=O)N1C[C@]2(CCCOC2)C[C@H]1c1nc2ccc3cc(-c4ccc5c(ccc6nc([C@@H]7C[C@@H]8COC[C@@H]8N7C(=O)[C@@H](NC(=O)OC)C(C)C)[nH]c65)c4)ccc3c2[nH]1)C(C)C [Compound 36] to COC(=O)N[C@H](C(=O)N1C[C@]2(CCCOC2)C[C@H]1c1ncc(-c2ccc(-c3ccc4c(ccc5nc([C@@H]6C[C@@H]7C[C@@H]7N6C(=O)[C@@H](NC(=O)OC)C(C)C)[nH]c54)c3)cc2)[nH]1)C(C)C [Compound 20], the EC50 falls from 0.051 nM to 0.011 nM (4.6-fold). The second is the more potent here.

Compared with COC(=O)N[C@H](C(=O)N1C[C@@]2(CCOC2)C[C@H]1c1ncc(-c2ccc(-c3ccc4c(ccc5nc([C@@H]6C[C@]7(CCOC7)CN6C(=O)[C@@H](NC(=O)OC)C(C)C)[nH]c54)c3)cc2)[nH]1)C(C)C [Compound 49], COC(=O)N[C@H](C(=O)N1C[C@]2(CCOC2)C[C@H]1c1ncc(-c2ccc(-c3ccc4c(ccc5nc([C@@H]6CCCN6C(=O)[C@@H](NC(=O)OC)C(C)C)[nH]c54)c3)cc2)[nH]1)C(C)C [Compound 26] is 2.4-fold higher in EC50: 0.009 nM for the first, 0.022 nM for the second. The first is the more potent here.

First: COC(=O)N[C@H](C(=O)N1[C@H](c2nc3ccc4cc(-c5ccc(-c6cnc([C@@H]7C[C@@]8(CCCOC8)CN7C(=O)[C@H](NC(=O)OC)C7C[C@@H](C)O[C@H](C)C7)[nH]6)cc5)ccc4c3[nH]2)C[C@@H]2CCCC[C@@H]21)C(C)C (stereo in doubt) [Compound 39]
Second: COC(=O)N[C@H](C(=O)N1C[C@]2(CCCOC2)C[C@H]1c1ncc(-c2ccc(-c3ccc4c(c3)CCCc3nc([C@@H]5C[C@@H]6CCCC[C@@H]6N5C(=O)[C@@H](NC(=O)OC)C(C)C)[nH]c3-4)cc2)[nH]1)C(C)C [Compound 40]
The EC50 of the first is 3.6-fold higher: 0.029 nM for the first, 0.008 nM for the second. The second is the more potent here.

COC(=O)N[C@H](C(=O)N1C[C@]2(CCCOC2)C[C@H]1c1ncc(-c2ccc(-c3ccc4c(c3)OCc3nc([C@@H]5CCCN5C(=O)[C@@H](NC(=O)OC)C(C)C)[nH]c3-4)cc2)[nH]1)C(C)C [Compound 30] and COC(=O)N[C@H](C(=O)N1CCC[C@H]1c1ncc(-c2ccc(-c3ccc4c(c3)OCc3nc([C@@H]5C[C@@]6(CCCOC6)CN5C(=O)[C@@H](NC(=O)OC)C(C)C)[nH]c3-4)cc2)[nH]1)C(C)C [Compound 33] are within 1.5-fold of each other in EC50: 0.045 nM for the first, 0.038 nM for the second.

Compared with COC(=O)N[C@H](C(=O)N1CCC[C@H]1c1nc2c([nH]1)-c1ccc(-c3ccc4c(ccc5nc([C@@H]6C[C@@]7(CCCOC7)CN6C(=O)[C@@H](NC(=O)OC)C(C)C)[nH]c54)c3)cc1OC2)C(C)C [Compound 25], COC(=O)N[C@H](C(=O)N1C[C@@]2(CCCO2)C[C@H]1c1ncc(-c2ccc(-c3ccc4c(ccc5nc([C@@H]6CCCN6C(=O)[C@@H](NC(=O)OC)C(C)C)[nH]c54)c3)cc2)[nH]1)C(C)C [Example 82] is 8.5-fold lower in EC50: 0.068 nM for the first, 0.008 nM for the second.

In the case of COC(=O)N[C@H](C(=O)N1CC2(CCOCC2)C[C@H]1c1ncc(-c2ccc(-c3ccc4c(ccc5nc([C@@H]6CCCN6C(=O)[C@@H](NC(=O)OC)C(C)C)[nH]c54)c3)cc2)[nH]1)C(C)C [Example 83], the EC50 is reported as 0.042 nM.
